This note sets out measurements from patent US12595269B2, “Morpholine-like monoamine releasers” (Solvonis Therapeutics Ireland Holdings Limited, priority 2022, dated 2026).

≈ marks a conversion by molar mass, not a printed value. Read-outs that look alike come from different tables or passages of the source.

By IC50 is commonly meant the midpoint of a concentration-inhibition curve. Usually solubility stands for how much of the substance goes into solution per volume. Higher therefore signals much dissolved substance.

Data set [1] has as its target T1, CYP2C9 (Homo sapiens, UniProt P11712).
T1 construct: host or cells: recombinant microsomes
Briefly: CYP450 inhibition, fluorescent probe, recombinant microsomes: CYP2C9. The format is in vitro ADME. How it is done: (§1) Methods and Procedure: The study was performed in agreement with previously described procedures to assure data integrity and adherence to GLP standards. Briefly, recombinant human CYP450 isoenzymes were used to metabolize pro-fluorescent probe substrates to fluorescent products. IC50 values determined from the effect of test compounds on the metabolism of these probe substrates were then used to determine inhibitory potency against CYP450 isoforms.
(§2) The test system was based on a three-step procedure with a “mix and read” format, where PGP-432,TI reaction and reading were performed at 37° C. […] Fluorescence was measured in kinetic mode (1 read/minutes for 10 minutes), and the fluorescence rate was calculated. […]
(§3) Microsomes were added to the buffer prior to the substrate addition. […] For fluorescence measurement, 10 μL/well of the test compounds were transferred from the compound plate to the assay plate using Biomek FX and the appropriate protocol. […]
(§4) 10 μL/well of the cofactor was then added to the assay plate using the Multidrop before placing the assay plate in the plate reader EnVision to measure fluorescence. […]
(§5) Next, 10 μL/well from the compound plate was added and incubated for 10 minutes at 37° C. on a plate shaker, while a mixture of Vivid Substrate and Vivid NADP+ in Vivid CYP450 Reaction Buffer was prepared. […] Regarding data analysis, the inhibition effect is expressed as a percentage. […]

The nature of data set [2]: Solubility in PBS pH 7.4 by HPLC-UV. The format is physicochemical. Particulars: PBS buffer, aqueous buffer, kinetic from dmso stock; PBS pH 7.4, about 2% DMSO, 120 minutes at room temperature. How it is done: Methods and Procedure: This study was designed in compliance with previously described procedures to assure data integrity and adherence to GLP principles. Control compounds included ibuprofen as a reference for high solubility and progesterone as a reference for low solubility. Stock solutions of compounds described herein (20 mM) were prepared in DMSO, on the same day of the experiment when feasible.
These solutions were compared with an external standard solution of known concentration via HPLC-UV To prepare the standard, 4 μL from a 20 mM compound stock solution was added to DMSO in a vial/well, and mixed with shaking at room temperature for 10 minutes. […]
Concentrations were determined by comparing UV absorbance of the test solution and of the known standard solution following HPLC separation using a generic fast gradient method employing a DAD detector and UV detection at 230 and 254 nm. […] The solubility of each compound was expressed as the ratio of compound amount in the sample test solution to the amount of compound in the standard solution, calculated from the equation “solubility of sample=peak area of sample/peak area of standard×concentration of standard.”

The target in data set [3] is T2, CYP3A4 (Homo sapiens, UniProt P08684).
T2 construct: purchased Life Technologies P2377; host or cells: Baculosomes
Briefly: CYP450 inhibition, fluorescent probes 7BQ and DBOMF: CYP3A4. Particulars: for IC50 at 10 min: human. The format is in vitro ADME. How it is done:
as §1
The test system was based on a three-step procedure with a “mix and read” format, where PGP-432,TI reaction and reading were performed at 37° C. The assays described herein measure in vitro inhibitory effects (pIC50) of compounds on the human P450 isoforms (1A2, 2B6, 2C8, 2C9, 2C19, 2D6, 3A4) expressed in recombinant microsomes. Pro-fluorescent probe substrates were metabolized to fluorescent products by the enzymes. Fluorescence was measured in kinetic mode (1 read/minutes for 10 minutes), and the fluorescence rate was calculated.
Inhibition of the fluorescent signal resulting from P450 activation indicated inhibitory activity and facilitated calculation of the compound pIC50. […] Concentration response curves (CRCs) of compounds were run on two different test occasions (n=2) by preparing serial dilutions from the dame compound stock solution.
To prepare the compound plate, test compounds serial dilutions 1 to 3 were performed from a 10 mM stock solution in DMSO by Biomek FX to generate 10 point CRC with the highest concentrations in columns 3 and 13.
100% DMSO was placed in columns 1 and 2 and used for assay low controls. CYP inhibitor (10 mM miconazole solution in DMSO) was placed in columns 23 and 24 and served as an assay high controls. 1 μL copy plates were then stamped into V-bottom drug plates at a concentration that is 200 fold the final assay concentration. The copy plates were diluted prior to the experiment with assay buffer to reach 4 times the final assay concentration (2% w/v DMSO).
A reference compound (e.g., miconazole) was included in each compound plate in row A, column 3 and 13. The reference compound was diluted and stamped together with test compounds. The final concentrations of the 10 point CRCs of test compounds in the assay plate were 5.00E-05; 1.67E-05; 5.56E-06; 1.85E-06; 6.17E-07; 2.06E-07; 6.86E-08; 2.29E-08; 7.62E-09 and 2.54E-09, respectively. […]
as §3, §4

The target in data set [4] is T3, CYP2C19 (Homo sapiens, UniProt P33261).
T3 construct: host or cells: recombinant microsomes
Description: CYP450 inhibition, fluorescent probe, recombinant microsomes: CYP2C19. The format is in vitro ADME. The protocol: as §1, §2, §3, §4, §5

T2 sequence (P08684 whole entry): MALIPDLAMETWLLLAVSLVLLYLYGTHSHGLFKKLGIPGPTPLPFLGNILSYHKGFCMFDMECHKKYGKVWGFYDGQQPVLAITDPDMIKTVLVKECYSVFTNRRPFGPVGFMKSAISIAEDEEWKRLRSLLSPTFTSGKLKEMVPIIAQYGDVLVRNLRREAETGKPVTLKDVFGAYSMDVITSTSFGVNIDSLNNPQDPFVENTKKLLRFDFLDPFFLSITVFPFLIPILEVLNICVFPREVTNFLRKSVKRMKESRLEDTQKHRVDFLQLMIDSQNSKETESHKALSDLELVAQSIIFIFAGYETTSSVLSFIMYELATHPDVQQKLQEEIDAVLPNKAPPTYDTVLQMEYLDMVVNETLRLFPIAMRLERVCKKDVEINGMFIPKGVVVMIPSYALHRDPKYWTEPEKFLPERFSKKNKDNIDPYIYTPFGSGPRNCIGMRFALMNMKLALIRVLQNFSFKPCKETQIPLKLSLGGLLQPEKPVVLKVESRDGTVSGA
T3 sequence (P33261 whole entry): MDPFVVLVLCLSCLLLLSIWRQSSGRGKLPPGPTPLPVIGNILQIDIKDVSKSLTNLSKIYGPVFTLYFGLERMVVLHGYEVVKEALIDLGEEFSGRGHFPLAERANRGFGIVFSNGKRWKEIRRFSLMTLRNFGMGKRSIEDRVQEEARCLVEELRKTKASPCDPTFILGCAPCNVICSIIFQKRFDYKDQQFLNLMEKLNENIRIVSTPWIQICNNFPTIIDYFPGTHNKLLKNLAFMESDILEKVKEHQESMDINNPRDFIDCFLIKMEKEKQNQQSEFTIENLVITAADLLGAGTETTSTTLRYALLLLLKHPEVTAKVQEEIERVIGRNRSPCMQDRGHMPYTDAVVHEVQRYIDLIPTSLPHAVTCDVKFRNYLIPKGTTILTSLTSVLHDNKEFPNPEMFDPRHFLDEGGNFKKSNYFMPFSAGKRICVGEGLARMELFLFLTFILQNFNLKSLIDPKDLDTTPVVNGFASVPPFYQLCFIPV
T1 sequence (P11712 whole entry): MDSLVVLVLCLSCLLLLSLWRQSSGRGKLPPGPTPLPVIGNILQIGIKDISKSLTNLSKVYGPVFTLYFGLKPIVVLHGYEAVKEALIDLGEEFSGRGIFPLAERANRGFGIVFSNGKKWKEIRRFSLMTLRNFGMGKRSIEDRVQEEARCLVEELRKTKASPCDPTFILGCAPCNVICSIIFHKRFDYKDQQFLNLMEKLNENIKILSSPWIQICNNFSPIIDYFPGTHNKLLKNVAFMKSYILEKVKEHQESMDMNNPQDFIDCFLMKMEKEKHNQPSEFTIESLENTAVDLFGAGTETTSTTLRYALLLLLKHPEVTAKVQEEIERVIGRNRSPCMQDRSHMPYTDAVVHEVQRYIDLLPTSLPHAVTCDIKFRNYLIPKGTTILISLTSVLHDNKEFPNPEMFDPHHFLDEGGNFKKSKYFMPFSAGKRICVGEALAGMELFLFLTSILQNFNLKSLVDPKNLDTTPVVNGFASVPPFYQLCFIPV

With `CNC(C)Cc1ccc2c(c1)OCO2` (stereo not shown) [MDMA, reference compound], the IC50 at 10 min in data set [1] (human, recombinant microsomes expressing CYP2C9) was found to be 50 µM; in data set [3] (recombinant CYP3A4 Baculosomes, pH 8, probe Vivid DBOMF), 50 µM; in data set [3] (recombinant microsomes expressing CYP3A4, probe 7BQ), 50 µM; in data set [4] (human, recombinant microsomes expressing CYP2C19), 50 µM. This compound also displayed a solubility at 120 min in data set [2] of 386 µM (≈ 74.6 µg/mL).
Consider `Clc1ccc(C23CNC(CO2)C3)cc1Cl` (stereo not shown) [522A, 1-(3,4-dichlorophenyl)-2-oxa-5-azabicyclo[2.2.1]heptane], for which the IC50 in data set [1] (recombinant human CYP2C9) was more than 50 µM; in data set [3] (recombinant human CYP3A4, substrate 7BQ, read-out: CYP450 Inhibition (IC50), CYP3A4 (7BQ)), more than 50 µM; in data set [3] (recombinant human CYP3A4, substrate DBOMF, read-out: CYP450 Inhibition (IC50), CYP3A4 (DBOMF)), more than 50 µM; in data set [4] (recombinant human CYP2C19), more than 50 µM. In addition, in data set [2], the solubility at 120 min was 384 µM (≈ 93.6 µg/mL).
